In series [1] the target is T1, CYP2C9 (Homo sapiens, UniProt P11712).
T1 construct: tissue Corning Life Sciences; host or cells: pooled human liver microsomes, 150 donors
Nature of the series: Reversible CYP2C9 inhibition, cocktail assay (tolbutamide 4-hydroxylase) in human liver microsomes. The settings on record: human liver microsomes 0.1 mg/mL, tolbutamide probe, n = 3. The class given is biochemical. On the procedure: (§1) The inhibitory effects of SPN on CYP1A2, CYP2A6, CYP2B6, CYP2C8, CYP2C9, CYP2C19, CYP2D6, CYP2E1, and CYP3A4 were evaluated in pooled human liver microsomes through the use of specific CYP probe substrates (cocktail assay), as previously described with a slight modification. Concentrations of each CYP probe in Table 1 were used close to their reported Km values.
Briefly, a 90-µL incubation mixture, including pooled human liver microsomes (final concentration 0.1 mg/mL), 50 mM phosphate buffer (pH 7.4), each CYP-probe substrate cocktail set, and SPN (0–50 μM), was pre-incubated for 5 min at 37 °C. SPN was dissolved in methanol and spiked into the incubation mixture to a final concentration of 0.5% methanol. […]
(§2) The IC50 values were calculated via nonlinear least-squares regression analysis from logarithmic plots of inhibitor concentration versus percentage of activity remaining after inhibition, using SigmaPlot (ver. 14.0; Systat Software Inc, Chicago, IL, USA). The Ki values were determined from the equations for a single substrate single inhibitor model and the software available in the SigmaPlot Enzyme Kinetics module. Competitive, non-competitive, uncompetitive, or mixed inhibition models were evaluated and ranked according to the best fit based on Akaike Information Criterion (AIC) values. […]
(Liver microsomes are vesicles of endoplasmic reticulum, rich in cytochrome P450 enzymes.)

For series [2], the target named is T2, CYP2E1 (Homo sapiens, UniProt P05181).
T2 construct: tissue Corning Life Sciences; host or cells: pooled human liver microsomes, 150 donors
Nature of the series: Reversible CYP2E1 inhibition, cocktail assay (chlorzoxazone 6-hydroxylase) in human liver microsomes. The class given is biochemical. The procedure: as §1
(§3) Briefly, a 90-µL incubation mixture, including pooled human liver microsomes (final concentration 0.1 mg/mL), 50 mM phosphate buffer (pH 7.4), each CYP-probe substrate cocktail set, and SPN (0–50 μM), was pre-incubated for 5 min at 37 °C. SPN was dissolved in methanol and spiked into the incubation mixture to a final concentration of 0.5% methanol. All P450-selective substrates (except coumarin due to solubility) were dissolved in methanol and serially diluted with methanol to the required concentrations, and the organic solvent was subsequently evaporated under a gentle stream of N2 gas to minimize the effects of organic solvents on CYP activities. On the other hand, coumarin dissolved in 50 mM phosphate buffer (pH 7.4) was directly added into the mixed tube. The reaction was initiated by adding 10-µL aliquot of NADPH-generating system (1.3 mM NADP^+, 3.3 mM glucose 6-phosphate, 3.3 mM MgCl2, and 0.4 unit/mL glucose-6-phosphate dehydrogenase) before 15 min incubation at 37 °C in a shaking water bath. […]
as §2

Details of series [3]: method as in PMID 26068519. To be noted: rats, oral 12.9 mg/kg SPN; cited from earlier work.
Series [4] concerns the target T3, CYP3A4 (Homo sapiens, UniProt P08684).
T3 construct: tissue Corning Life Sciences; host or cells: pooled human liver microsomes, 150 donors
Nature of the series: Inhibition of CYP3A4-catalyzed testosterone 6β-hydroxylation. The class given is biochemical. To be noted: data not shown. An excerpt:
The reversible inhibition of SPN-mediated CYP3A4 activity was less consistent with the published literature. […] They only focused on the in vitro inhibitory potentials of several flavonoids against CYP3A4 activity. To the best of our knowledge, to date, bufalin has not been used as the in vitro probe substrate for the CYP3A4 activity, and the reference material of 5′-hydroxybufalin is not commercially available. Because of the presence of several binding regions within the CYP3A4 active site, multiple probe substrates are often used for in vitro CYP3A4-mediated drug–drug interaction studies, including midazolam, nifedipine, and testosterone. […] Altogether, the in vitro CYP3A4 inhibition by SPN seemed to be substrate-specific.

The target of series [5] is T4, CYP2A6 (Homo sapiens, UniProt P11509).
T4 construct: tissue Corning Life Sciences; host or cells: pooled human liver microsomes, 150 donors
T4 sequence (P11509 1-494): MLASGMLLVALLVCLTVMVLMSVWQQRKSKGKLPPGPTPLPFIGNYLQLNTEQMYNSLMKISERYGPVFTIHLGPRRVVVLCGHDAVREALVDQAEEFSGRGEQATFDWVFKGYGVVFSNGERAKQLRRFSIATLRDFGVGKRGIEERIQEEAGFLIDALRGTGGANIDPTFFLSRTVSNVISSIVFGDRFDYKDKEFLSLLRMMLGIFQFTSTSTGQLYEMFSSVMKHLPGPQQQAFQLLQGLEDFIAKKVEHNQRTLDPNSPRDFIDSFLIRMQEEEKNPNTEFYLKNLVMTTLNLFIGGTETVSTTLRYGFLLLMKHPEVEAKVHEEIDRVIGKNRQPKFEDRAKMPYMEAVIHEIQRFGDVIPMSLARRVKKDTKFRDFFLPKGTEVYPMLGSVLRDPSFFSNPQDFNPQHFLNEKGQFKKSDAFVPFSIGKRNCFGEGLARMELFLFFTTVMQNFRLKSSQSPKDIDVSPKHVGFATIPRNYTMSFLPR
The series can be described thus: Reversible CYP2A6 inhibition, cocktail assay (coumarin 7-hydroxylase) in human liver microsomes. The class given is biochemical. On the procedure: as §1, §3, §2

Setting [6] is: at the highest tested concentration (50 μM).

The values below come from PMC7238241, “Lack of Correlation between In Vitro and In Vivo Studies on the Inhibitory Effects of (‒)-Sophoranone on CYP2C9 Is Attributable to Low Oral Absorption and Extensive Plasma Protein Binding of (‒)-Sophoranone” (Pharmaceutics, 2020).

T2 sequence (P05181 whole entry): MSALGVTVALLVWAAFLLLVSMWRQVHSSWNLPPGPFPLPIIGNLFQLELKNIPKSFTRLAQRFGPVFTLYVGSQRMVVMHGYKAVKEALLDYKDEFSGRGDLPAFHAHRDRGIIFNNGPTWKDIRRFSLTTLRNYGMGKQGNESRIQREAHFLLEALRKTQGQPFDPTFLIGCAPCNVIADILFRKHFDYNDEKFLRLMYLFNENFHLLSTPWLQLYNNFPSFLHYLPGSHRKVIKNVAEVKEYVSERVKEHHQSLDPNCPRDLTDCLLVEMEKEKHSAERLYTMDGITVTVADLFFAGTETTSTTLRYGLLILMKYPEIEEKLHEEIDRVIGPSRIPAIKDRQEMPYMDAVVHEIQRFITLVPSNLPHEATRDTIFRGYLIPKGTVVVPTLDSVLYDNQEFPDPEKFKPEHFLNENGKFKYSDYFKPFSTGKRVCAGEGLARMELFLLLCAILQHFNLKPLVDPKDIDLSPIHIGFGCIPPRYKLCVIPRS
T1 sequence (P11712 whole entry): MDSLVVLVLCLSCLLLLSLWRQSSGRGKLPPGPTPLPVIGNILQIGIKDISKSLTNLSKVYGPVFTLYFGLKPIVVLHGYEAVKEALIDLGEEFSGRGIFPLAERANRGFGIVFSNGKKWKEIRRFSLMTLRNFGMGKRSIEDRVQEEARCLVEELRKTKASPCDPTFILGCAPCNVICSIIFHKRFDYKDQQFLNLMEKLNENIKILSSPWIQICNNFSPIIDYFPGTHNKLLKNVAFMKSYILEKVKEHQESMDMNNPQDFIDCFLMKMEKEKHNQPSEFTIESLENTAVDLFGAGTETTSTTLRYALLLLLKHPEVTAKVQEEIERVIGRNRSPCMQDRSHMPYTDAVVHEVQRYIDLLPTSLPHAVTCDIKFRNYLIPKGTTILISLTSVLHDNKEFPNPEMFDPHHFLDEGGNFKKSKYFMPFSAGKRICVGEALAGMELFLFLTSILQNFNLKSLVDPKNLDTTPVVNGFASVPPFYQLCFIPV
T3 sequence (P08684 whole entry): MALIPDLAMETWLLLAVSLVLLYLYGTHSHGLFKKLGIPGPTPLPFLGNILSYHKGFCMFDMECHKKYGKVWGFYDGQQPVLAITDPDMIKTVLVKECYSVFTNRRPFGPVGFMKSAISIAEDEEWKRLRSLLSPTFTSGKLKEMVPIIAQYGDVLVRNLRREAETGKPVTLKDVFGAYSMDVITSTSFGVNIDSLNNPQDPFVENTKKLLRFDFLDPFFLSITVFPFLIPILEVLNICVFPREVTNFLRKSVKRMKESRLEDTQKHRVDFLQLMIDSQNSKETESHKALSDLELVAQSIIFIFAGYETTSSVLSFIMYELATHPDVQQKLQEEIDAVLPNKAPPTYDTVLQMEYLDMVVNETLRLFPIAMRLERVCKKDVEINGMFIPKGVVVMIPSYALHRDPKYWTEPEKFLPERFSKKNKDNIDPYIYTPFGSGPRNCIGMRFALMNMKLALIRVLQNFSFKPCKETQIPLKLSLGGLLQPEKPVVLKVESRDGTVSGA

The IC50 is the concentration at which inhibition is half-maximal. Take `CC(C)=CCc1cc([C@@H]2CC(=O)c3ccc(O)c(CC=C(C)C)c3O2)cc(CC=C(C)C)c1O` [SPN, (‒)-Sophoranone]: the IC50 in series [1] was 0.966 ± 0.149 µM; in series [2] (human liver microsomes 0.1 mg/mL, cocktail assay, chlorzoxazone probe, n = 3, read-out: IC50 Values, CYP2E1), more than 50 µM; in series [4], 31.5 ± 4.79 µM; in series [5] (human liver microsomes 0.1 mg/mL, cocktail assay, coumarin probe, n = 3, read-out: IC50 Values, CYP2A6), more than 50 µM. For the same compound, the “residual enzyme activity, CYP2E1” value in series [2] (setting [6]) was “greater than 80%”. Besides, in series [3], the “maximum plasma concentration (Cmax)” value is “approximately 13.1 ng/mL”. Also, the “residual enzyme activity, CYP2A6” value in series [5] (setting [6]) is on record as “greater than 80%”.
